Compound: CC(=O)c1c(C)c2cnc(Nc3ccc(N4CCNCC4)cn3)nc2n(C2CCCC2)c1=O [Palbociclib]
Assay: relative viability (nuclei count vs DMSO), 5 days (fraction); higher = more cells survive
How it was run: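 On vehicle-anchored 1536-well plates, lung cancer cell lines held overnight at 37 °C were pinned with five library-drug doses (not always all listed) spaced by √10. With no medium change over 5 days, they were then fixed, permeabilised and Hoechst-stained in one step and imaged at 4×. MetaXpress counted nuclei, and viability is the median across plates of treated-well over vehicle-well nuclei. Acceptance needed control CV below 25% and at least one doubling.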

Row | Cell Line | relative viability (0.01 µM) | relative viability (0.03162 µM) | relative viability (0.1 µM) | relative viability (0.3162 µM) | relative viability (1 µM) | relative viability (0.5 µM, anchor plate)
1 | NCI-H596 | 0.894 | 0.775 | 0.9 | 0.876 | 1.04 | –
2 | NCI-H2170 | 0.993 | 0.856 | 0.94 | 0.894 | 0.704 | 0.382
3 | NCI-H2405 | 0.996 | 0.797 | 0.842 | 0.889 | 0.654 | 0.52
4 | HCC-366 | 1 | – | 0.977 | 1 | 0.859 | 0.383
5 | NCI-H1975 | 0.923 | 0.949 | 0.924 | 0.865 | 0.793 | 0.593
6 | NCI-H1755 | 1.03 | 0.896 | 0.915 | 0.845 | 0.664 | 0.443
7 | COR-L23 | 1.05 | 0.886 | 0.739 | 0.808 | 0.528 | 0.293
8 | PC-3 [JPC-3] | 1.08 | 0.895 | 0.855 | 0.761 | 0.59 | 0.536
9 | NCI-H2126 | 0.996 | 0.649 | 0.792 | 0.694 | 0.464 | 0.353
10 | NCI-H1944 | 0.971 | 0.762 | 0.886 | 0.885 | 0.532 | 0.345
11 | NCI-H647 | 1.06 | 0.781 | 0.865 | 0.82 | 0.597 | 0.415
12 | NCI-H1395 | 1.01 | 0.825 | 0.797 | 0.858 | 0.597 | 0.647
13 | LCLC-103H | 1 | 0.762 | 0.858 | 0.833 | 0.537 | 0.469
14 | EPLC-272H | 1.07 | – | 0.798 | 0.828 | 0.456 | 0.33
15 | EKVX | 1.12 | 0.733 | 0.766 | 0.882 | 0.544 | 0.394
16 | NCI-H1915 | 1.01 | 0.695 | 0.973 | 0.902 | 0.756 | 0.527
17 | NCI-H2347 | 1.05 | 0.905 | 0.87 | 0.775 | 0.684 | 0.424
18 | NCI-H2228 | 1.01 | 0.844 | 0.937 | 0.899 | 0.795 | 0.85
19 | NCI-H1299 | 0.981 | 0.977 | 0.906 | 0.839 | 0.729 | –

Row | Cell Line | relative viability (0.01 µM) | relative viability (0.03162 µM) | relative viability (0.1 µM) | relative viability (0.3162 µM) | relative viability (1 µM) | relative viability (0.5 µM, anchor plate)
20 | NCI-H650 | 0.971 | – | 0.711 | 0.794 | 0.516 | 0.327
21 | PC-14 | 1.13 | 0.847 | 0.841 | 0.873 | 0.503 | 0.514
22 | NCI-H838 | 1.06 | 0.833 | 0.761 | 0.816 | 0.353 | 0.232
23 | NCI-H727 | 0.814 | 0.786 | 0.653 | 0.659 | 0.564 | 0.625
24 | ABC-1 | 1.02 | 0.853 | 0.81 | 0.785 | 0.686 | 0.755
25 | RERF-LC-KJ | 1.02 | 0.871 | 0.968 | 1.02 | 1.02 | 1.09
26 | A549 | 0.983 | 0.71 | 0.68 | 0.692 | 0.448 | –
27 | NCI-H1437 | 1.02 | 0.877 | 0.863 | 0.823 | 0.571 | 0.311
28 | SK-LU-1 | 1.05 | 0.912 | 0.828 | 0.794 | 0.563 | 0.385
29 | NCI-H1793 | 1.02 | 0.54 | 0.77 | 0.682 | 0.327 | 0.325
30 | ChaGo-K-1 | 1.02 | 0.778 | 1.04 | 1.02 | 1.02 | 0.939
31 | A-427 | 0.941 | 0.775 | 0.755 | 0.727 | 0.534 | 0.529
32 | NCI-H358 | 0.986 | 0.675 | 0.718 | 0.543 | 0.277 | 0.138
33 | HOP-62 | 0.953 | – | 0.87 | 0.795 | 0.663 | 0.451
34 | NCI-H322M | 0.888 | 0.825 | 0.633 | 0.648 | 0.502 | 0.492
35 | NCI-H441 | 0.829 | 0.655 | 0.741 | 0.741 | 0.5 | 0.235
36 | H3255 | 1.04 | 0.922 | 0.823 | 0.904 | 0.519 | 0.316
37 | NCI-H1666 | 1 | 0.86 | 0.873 | 0.836 | 0.582 | 0.632
38 | NCI-H661 | 0.968 | 0.862 | 0.765 | 0.611 | 0.455 | 0.415
